Measurements published in PMC8398878, “Synthesis, Physicochemical Characterization, In Vitro 2D/3D Human Cell Culture, and In Vitro Aerosol Dispersion Performance of Advanced Spray Dried and Co-Spray Dried Angiotensin (1—7) Peptide and PNA5 with Trehalose as Microparticles/Nanoparticles for Targeted Respiratory Delivery as Dry Powder …” (Pharmaceutics, 2021).
≈ marks a conversion by molar mass, not a printed value. Like-named read-outs stand apart in the source and are kept apart here. Peptide text beside a SMILES is read from it. * marks the point of attachment. βGlc = OC[C@H]1O[C@@H](*)[C@H](O)[C@@H](O)[C@@H]1O

Assays:
[1] = system: H441 lung epithelial cells; assay: In vitro 2D cell viability, resazurin assay; conditions: for safe (non-toxic) concentration: epithelium lung cells (H441)
Protocol: (§1) In vitro human cell viability assays were performed to measure the biocompatibility and safety of Ang (1—7) and PNA5 on nasal epithelium RPMI 2650 cells, hCMEC/D3 blood–brain barrier endothelial cells, NHA, A549, and H441 lung cells using resazurin as a marker.
(§2) A549 adenocarcinoma human alveolar basal epithelial cells (ATCC® CCL-185™) and H441 lung adenocarcinoma cells (ATCC®HTB174™) were used at passages 9 and 8, respectively, for the experiments. Both cell types were grown in a growth in RPMI Medium 1640 (1X) (Gibco, 11875-093, 500 mL) supplemented with 10% v/v fetal bovine serum (FBS), 0.2% v/v fungizone (0.5 μg/mL amphotericin), 1% v/v Pen-Strep (100 Unit/mL penicillin, 100 μg/mL streptomycin). The cells were kept in a humidified incubator at 37 °C and 5% CO2.
(§3) For passage, all the cell types were detached when confluence reached about 80% by treating the cells with trypsin-EDTA at 37 °C. The effects of Ang (1—7) and PNA5 on cell proliferation were analyzed by measuring all of the above cell line responses to different concentrations of Ang (1—7) and PNA5 separately. The cells were seeded in 96-well black plates at a specific density and were kept to attach for 48 h. Then, the media containing compounds were removed from each well and replaced by 100 μL of media containing 20 μM resazurin sodium salt (was dissolved in un-supplemental media) and incubated for 4 h at 37 °C and 5% CO2. The fluorescence intensity of the metabolite (resorufin) produced by the viable cells was measured at 544 nm (the excitation) and 590 nm (the emission) using the Synergy H1 Multi-Mode Reader (BioTek Instruments Inc., Winooski, VT, USA). The relative cell viability of the cell line was calculated using Equation (6):(6) Relative viability %=Sample fluorescence intensity/Control fluorescence intensity×100%

[2] = system: Normal Human Astrocytes (NHA); assay: In vitro 2D cell viability, resazurin assay; conditions: for safe (non-toxic) concentration: astrocyte brain cells (NHA)
Protocol: as §1
(§4) Human nasal epithelial cells (RPMI 2650) with passage numbers between 9 and 13 were used for the experiments. Eagle’s Minimum Essential Medium (EMEM) (ATCC® 30-2003™) supplemented with 10% (v/v) fetal bovine serum (FBS), 1% (v/v) Pen-Strep (100 Unit/mL penicillin, 100 μg/mL streptomycin), 0.2% (v/v) and fungizone (0.5 μg/mL amphotericin) was used to grow cells in a humidified incubator at 37 °C and 5% CO2. Normal Human Astrocytes (NHA) at passages 1 and 3 were used for the experiments. A supplements kit for a complete growth medium AGM™ SingleQuots™ (Lonza, CC-4123) was added to the growth medium of Astrocyte basal medium ABM™ (Lonza, CC-3187).
as §3

[3] = system: RPMI 2650 nasal epithelium cells; assay: In vitro 2D cell viability, resazurin assay; conditions: for safe (non-toxic) concentration: nasal epithelium cells (RPMI2650)
Protocol: as §1, §4, §3

[4] = Solubility by shake-flask method (SFM) with HPLC; type: physicochemical
Protocol: The solubilities of Ang (1—7) and PNA5 were determined by the SFM using conditions similar to previously reported by our group and in [39, 40, 41, 42]. Each compound’s excess powder was added to a specific volume of different solvents (purified water, phosphate buffered saline (PBS), normal saline (NS), methanol, and ethanol) in closed, light-protected glass vials. The solutions containing excess solid of Ang (1—7) and PNA5 were then capped and agitated at room temperature (25 °C) using a shaker. More powder was added to the vial if the dissolution was complete. The pH value of Ang (1—7) and PNA5 suspensions were adjusted to pH 6.5 (pseudo-isoelectric point calculated by MOE software) to determine the zwitterionic species’ solubilities and ensure the predominant presence of the unionized form of Ang (1—7) and PNA5. The separation of the saturated solution and the precipitate was performed by sedimentation. Aliquots of supernatants were withdrawn from all saturated solutions, diluted with each corresponding solvent, and injected into analytical HPLC. Each compound in each aliquot was measured against a calibration curve using the previously developed analytical HPLC method in our lab. Each compound’s solubility experiments in all solvents were repeated three times (n = 3, mean ± standard deviation).
The HPLC system is LC-2010HT next-generation HPLC (SHIMADZU Tokyo, Japan), and it is the same as previously used in [24]. This system consists of a degassing unit, low-pressure gradient unit, pump unit, mixer, ultra-fast autosampler, column oven, and a UV-VIS detector with a thermostatted flow cell system. The analysis was performed by a reverse phase HPLC assay, using Phenomenex Prodigy 5 um ODS (3) 250 × 4.6 mm HPLC Column. Ultraviolet detection was done at 280 nm. Mobile phase condition was a gradient of acetonitrile in water with 0.1% trifluoroacetic acid at two different percentages pumped from two pumps. The flow was 1 mL/min, the injection volume was 20 μL; the retention time for Ang (1—7) was ~7.7 min and for PNA5 was ~6.7 min. Quantification for both compounds was determined using peak area and calculated from freshly prepared standard curves.

[5] = system: A549 lung epithelial cells; assay: In vitro 2D cell viability, resazurin assay; conditions: for safe (non-toxic) concentration: epithelium lung cells (A549)
Protocol: as §1, §2, §3

[6] = system: hCMEC/D3 blood–brain barrier endothelial cells; assay: In vitro 2D cell viability, resazurin assay; conditions: for safe (non-toxic) concentration: endothelial brain cells (hCMEC/D3)
Protocol: as §1
The immortalized human cerebral microvascular endothelial (hCMEC/D3) at passages 29 and 31 were seeded on collagen-coated culture flasks. Cells were grown in EndoGRO™-MV Complete Media Kit (cat. no. SCME004) supplemented with one ng/mL FGF-2 (cat. no. GF003) and kept in a humidified incubator at 37 °C and 5% CO2.
as §3

[7] = Karl Fisher coulometric titration, residual water content; type: physicochemical; conditions: n = 3
Protocol: All powders’ residual water content was quantified by KFT coulometrically using conditions similar to previously reported. A TitroLine® 7500 trace titrator (SI Analytics, Mainz, Germany) was used. A mass of 1–2 mg of powder sample was dissolved in 0.5 mL AQUA STAR anhydrous methanol and injected the sample solution into a reaction cell filled with Hydranal® Coulomat AD reagent. Then obtain the water content of the sample a simple calculation. All experiments were done in triplicate (n = 3).

## CC[C@H](C)[C@H](NC(=O)[C@H](Cc1ccc(O)cc1)NC(=O)[C@@H](NC(=O)[C@H](CCCNC(=N)N)NC(=O)[C@@H](N)CC(=O)O)C(C)C)C(=O)N[C@@H](Cc1c[nH]cn1)C(=O)N1CCC[C@H]1C(=O)O [Ang (1—7), Asp-Arg-Val-Tyr-Ile-His-Pro]
[1]
  safe (non-toxic) concentration: up to 1000 μg/mL
[2]
  safe (non-toxic) concentration: up to 1000 μg/mL
[3]
  safe (non-toxic) concentration: up to 1000 μg/mL
[4]; Ethanol
  Solubility Category According to USP Definition: Very slightly soluble (VSS)
[4]; Ethanol, 25 °C, n = 3, read-out: Solubility
  solubility: 0.16 ± 0.001 mg/mL
[4]; Ethanol, footnote: S in mMole unit, read-out: LogS (experimental) (converted)
  solubility: 0.178 mM
[4]; H2O, footnote: S in mMole unit, read-out: LogS (experimental) (converted)
  solubility: 195 mM
[4]; H2O, read-out: Solubility Category According to USP Definition
  solubility: 100 to 1000 mg/mL
[4]; Methanol
  Solubility Category According to USP Definition: Slightly soluble (SS)
[4]; Methanol, 25 °C, n = 3, read-out: Solubility
  solubility: 1 ± 0.005 mg/mL
[4]; Methanol, footnote: S in mMole unit, read-out: LogS (experimental) (converted)
  solubility: 1.12 mM
[4]; NS, footnote: S in mMole unit, read-out: LogS (experimental) (converted)
  solubility: 155 mM
[4]; NS, read-out: Solubility Category According to USP Definition
  solubility: 100 to 1000 mg/mL
[4]; PBS
  Solubility Category According to USP Definition: Freely Soluble (FS)
[4]; PBS, footnote: S in mMole unit, read-out: LogS (experimental) (converted)
  solubility: 186 mM
[4]; pH 6.5, H2O, pH 6.5, 25 °C, n = 3, read-out: Solubility
  solubility: 174 ± 0.19 mg/mL
[4]; pH 6.5, NS (normal saline), pH 6.5, 25 °C, n = 3, read-out: Solubility
  solubility: 140.4 ± 0.32 mg/mL
[4]; pH 6.5, PBS, pH 6.5, 25 °C, n = 3, read-out: Solubility
  solubility: 165.4 ± 0.34 mg/mL
[5]
  safe (non-toxic) concentration: up to 1000 μg/mL
[6]
  safe (non-toxic) concentration: up to 1000 μg/mL

## CC[C@H](C)[C@H](NC(=O)[C@H](Cc1ccc(O)cc1)NC(=O)[C@@H](NC(=O)[C@H](CCCNC(=N)N)NC(=O)[C@@H](N)CC(=O)O)C(C)C)C(=O)N[C@@H](Cc1c[nH]cn1)C(=O)N[C@@H](CO[C@@H]1O[C@H](CO)[C@@H](O)[C@H](O)[C@H]1O)C(N)=O [PNA5, Asp-Arg-Val-Tyr-Ile-His-Ser-(O-β-D-Glc)-amide] (H-DRVYIHS(βGlc)-NH2)
[1]; H441, 0.1, 1, 10 and 1000 µg/mL, p > 0.05, n = 6
  relative cell viability% vs control cells: no statistically significant difference
[1]
  safe (non-toxic) concentration: up to 1000 μg/mL
[2]; NHA, 0.1, 1, 10 and 1000 µg/mL, p > 0.05, n = 6
  relative cell viability% vs control cells: no statistically significant difference
[2]
  safe (non-toxic) concentration: up to 1000 μg/mL
[3]; RPMI2650, 0.1, 1, 10 and 1000 µg/mL, p > 0.05, n = 6
  relative cell viability% vs control cells: no statistically significant difference
[3]
  safe (non-toxic) concentration: up to 1000 μg/mL
[4]; Ethanol
  Solubility Category According to USP Definition: Very slightly soluble (VSS)
[4]; Methanol
  Solubility Category According to USP Definition: Very slightly soluble (VSS)
[4]; NS (normal saline), pH 6.5, 25 °C, n = 3
  solubility thermodynamic: 269.3 ± 1.53 mg/mL (≈ 256 mM)
[4]; ethanol, 25 °C, n = 3, read-out: Solubility
  solubility: 0.12 ± 0.003 mg/mL
[4]; ethanol, footnote: S in mMole unit, read-out: LogS (experimental) (converted)
  solubility: 0.115 mM
[4]; methanol, 25 °C, n = 3, read-out: Solubility
  solubility: 0.34 ± 0.01 mg/mL
[4]; methanol, footnote: S in mMole unit, read-out: LogS (experimental) (converted)
  solubility: 0.331 mM
[4]; normal saline (NS), pH 6.5, NS, footnote: S in mMole unit, read-out: LogS (experimental) (converted)
  solubility: 257 mM
[4]; normal saline (NS), pH 6.5, NS, read-out: Solubility Category According to USP Definition
  solubility: 100 to 1000 mg/mL
[4]; phosphate buffered saline (PBS), pH 6.5, PBS, footnote: S in mMole unit, read-out: LogS (experimental) (converted)
  solubility: 288 mM
[4]; phosphate buffered saline (PBS), pH 6.5, PBS, read-out: Solubility Category According to USP Definition
  solubility: 100 to 1000 mg/mL
[4]; phosphate buffered saline (PBS), PBS, pH 6.5, 25 °C, n = 3
  solubility thermodynamic: 305.05 ± 0.22 mg/mL (≈ 290 mM)
[4]; purified water, pH 6.5, H2O, footnote: S in mMole unit, read-out: LogS (experimental) (converted)
  solubility: 263 mM
[4]; purified water, pH 6.5, H2O, read-out: Solubility Category According to USP Definition
  solubility: 100 to 1000 mg/mL
[4]; purified water, H2O, pH 6.5, 25 °C, n = 3
  solubility thermodynamic: 275.3 ± 2.31 mg/mL (≈ 262 mM)
[5]; A549, 0.1, 1, 10 and 1000 µg/mL, p > 0.05, n = 6
  relative cell viability% vs control cells: no statistically significant difference
[5]
  safe (non-toxic) concentration: up to 1000 μg/mL
[6]
  safe (non-toxic) concentration: up to 1000 μg/mL
[6]; hCMEC/D3, 0.1, 1, 10 and 1000 µg/mL, p > 0.05, n = 6
  relative cell viability% vs control cells: no statistically significant difference

## OC[C@H]1O[C@H](O[C@H]2O[C@H](CO)[C@@H](O)[C@H](O)[C@H]2O)[C@H](O)[C@@H](O)[C@@H]1O [Raw Trehalose, D (+)-Trehalose dihydrate]
[7]
  Water % (w/w): 8.55 ± 1.50 % (w/w)
